Assay [1] deals with alkaline phosphatase (ALP). The note with it: for RFU Score (10 μM): 154-analog library, C2C12, duplicate.
Assay [2] relates to alkaline phosphatase (ALP). The assay is described as follows: ALP expression staining in C2C12 cells. It is filed as cell-based, mouse. As to conditions: for ALP expression by staining: C2C12, 2 days, 10 μM. The procedure: C2C12 cells were treated for 2 days with 10 μM DIPQUO or structural analogs, 1 ng/ml rhBMP4, or with inhibitors as noted in figure legends, and then fixed briefly in 70% acetone/10% formaldehyde/20% citrate. Staining was achieved using the leukocyte alkaline phosphatase kit (Sigma 86R-1KT) according to the manufacturer's instructions. Expression of ALP was confirmed and quantified by flow cytometric analysis, using an Accuri C6 flow cytometer. Briefly, control- or DIPQUO-treated C2C12 cells were detached and harvested on day 2 using PBS-based enzyme-free cell detachment solution (ThermoFisher). 2×10^5 cells were incubated on ice for 30 minutes with 10 μl APC-conjugated ALPL antibody (R&D Systems), and washed in ice-cold PBS before analysis. Live cells were gated and analyzed in CFlow Plus software and then data was converted to FlowJo to achieve publication-level resolution. For siRNA experiments, gene-specific oligonucleotides were obtained for mouse p38-alpha (Cell Signaling) and p38-beta (Santa Cruz). Signal Silence scramble siRNA control oligonucleotide was purchased from Cell Signaling. C2C12 cells at 70% confluency were transfected in 12-well plates using Lipofectamine RNAiMax reagent (Invitrogen) according to manufacturer's instructions. Transfected cells were treated 24 hours later with DMSO or 10 μM DIPQUO, and siRNA transfection was repeated after 48 hours without changing culture media. After an additional 3 days, cells were either fixed and stained for ALP expression or analyzed for ALP activity using the AttoPhos Substrate kit. Hemagglutinin and FLAG epitope-tagged MKK3 (pMT2-HA-MKK3) and MKK6 (pcDNA3-FLAG-MKK6) constructs were obtained from Addgene and transfected into C2C12 cells using Lipofectamine LTX with Plus Reagent (ThermoFisher) according to manufacturer's instructions and cell extracts analyzed for protein expression and activity as described below.

In assay [3] the test system is alkaline phosphatase (ALP). Nature of the assay: cells. As to conditions: Mus musculus; for activation at 10 µM: C2C12, 96 h.
Assay [4] relates to RAW 264.7 murine macrophage cell line. The assay is described as follows: Osteoclast differentiation (TRAP staining, qRT-PCR) in RAW 264.7 cells. Format: cell-based, mouse. As to conditions: RAW 264.7, 4 days; DIPQUO 10 μM, RANKL 50 ng/ml. The procedure:
To address the specificity of DIPQUO for stimulating an osteogenic versus osteoclastic program, the RAW 264.7 murine macrophage cell line was assayed for osteoclast differentiation by staining for tartrate-resistant acid phosphatase (TRAP) to distinguish multinucleated osteoclasts from macrophages. […] Thus, DIPQUO appears to be primarily supportive of osteogenesis.
The RAW 264.7 macrophage cell line was purchased from ATCC and maintained in DMEM with 10% FBS. Cells were treated with 10 μM DIPQUO or 50 ng/ml RANKL (Sigma) for 4 days. Cells were fixed in 70% acetone/10% formaldehyde/20% citrate and TRAP staining was achieved using the Leukocyte Acid Phosphatase kit (Sigma 387A-1KT).
For quantitative RT-PCR analysis of gene expression in C2C12 cultures, cells were treated for 2 days with 10 μM DIPQUO and harvested into Trizol reagent (Invitrogen). One microgram of RNA was reverse transcribed using the VILO-RT kit (Invitrogen) to generate cDNA, which was diluted 1:25 in RNase-free H2O for qPCR with Sybr green using the Roche 480 II LightCycler and the 2^−ΔΔCT method (Livak and Schmittgen, 2001). For analysis of osteoclast gene expression, RAW 264.7 cells were treated with DMSO, 50 ng/ml RANKL, or 10 μM DIPQUO for 4 days, then harvested into Trizol reagent and processed as above. Mouse qPCR primers are as follows. Runx2: F([…]) (SEQ ID NO:1); R([…]) (SEQ ID NO:2); Dlx5: F([…]) (SEQ ID NO:3); R([…]) (SEQ ID NO:4); Osterix: F([…]) (SEQ ID NO:5); R([…]) (SEQ ID NO:6); ALP: F([…]) (SEQ ID NO:7); R([…]) (SEQ ID NO:8); Osteocalcin: F([…]) (SEQ ID NO:9); R([…]) (SEQ ID NO:10); Osteoactivin: F([…]) (SEQ ID NO:11); R([…]) (SEQ ID NO:12); CTSK: F([…]) (SEQ ID NO:13); R([…]) (SEQ ID NO:14); MMP9: F([…]) (SEQ ID NO:15); R([…]) (SEQ ID NO:16); Gapdh F([…]) (SEQ ID NO:17); R([…]) (SEQ ID NO:18). RNA-seq studies were carried out with the assistance of the Weill Cornell Genomics Core Facility, using the Illumina HiSeq4000 next-generation sequencer to generate reads from cDNA libraries generated from three biological replicates of day 2 DMSO- or DIPQUO-treated C2C12 cells. […]

As to `COC(=O)c1cc2cc(Cl)ccc2[nH]c1=O` [BT344], the “Fluo. Z Score” value in assay [1] (SAR of library and proprietary analogs, AttoPhos assay, C2C12) stood at 0.61 ± 0.47. For the same molecule, in assay [2], the “ALP expression by staining” value was “inert”. This molecule also registered an EC50 in assay [3] (C2C12) of 920 nM. Turning to `O=C(O)c1cc2cc(Cl)ccc2[nH]c1=O` [BT345], the “ALP expression by staining” value in assay [2] was “inert”. For `c1ccc2c(-c3cnn4cc(-c5ccc(N6CCNCC6)cc5)cnc34)ccnc2c1` [LDN193189, reference compound], the “effect of inhibitor on BMP-driven ALP expression (staining)” value in assay [2] (C2C12, co-treatment with BMP) is reported as “attenuated BMP activation of ALP expression”. As to `CC(C)CN(C)[C@H]1CN(C(=O)c2[nH]cnc2-c2ccccc2)C[C@@H]1O` [RU-0424534], the “RFU Score (10 μM)” value in assay [1] is on record as 638. For the same molecule, the activation at 10 µM in assay [3] is 12.6%. The like results for `Cc1cc(C)c2[nH]c(=O)c(CN3C[C@H]4C(=O)NC[C@@]4(C(=O)O)C3)cc2c1` [RU-0424535] were, in that order, 518 and 8.32%.

With `Cc1cc(C)c2[nH]c(=O)c(CN3CCCC(c4ncc[nH]4)C3)cc2c1` (stereo not drawn) [RU-0424536], the “RFU Score (10 μM)” value in assay [1] was 516. The same molecule gave an activation at 10 µM in assay [3] of 8.27%.

For the molecule `CNC(=O)[C@@H]1C[C@@H](N)CN1Cc1cc2cc(C)cc(C)c2[nH]c1=O` [RU-0424537], the “RFU Score (10 μM)” value in assay [1] worked out at 513. This molecule displayed an activation at 10 µM in assay [3] of 8.16%. Consider `O=S(=O)(Nc1ncc(-c2[nH]cnc2-c2ccccc2)cn1)c1ccccc1` [RU-0424538], for which the “RFU Score (10 μM)” value in assay [1] is 533. Moreover, the activation at 10 µM in assay [3] stood at 8.87%. On the same counts, the results for `Cc1cc(C)c2[nH]c(=O)c(-c3nccn3CCCN(C)C)cc2c1` [RU-0424539] are 565 and 10%.

For `c1ccc(-c2nc[nH]c2-c2cnc(N3CCOCC3)s2)cc1` [RU-0424540], in assay [1], the “RFU Score (10 μM)” value is reported as 603. Besides, the activation at 10 µM in assay [3] was 11.4%. On the same counts, the results for `Cc1cc(C)c2[nH]c(=O)c(C3CC(=O)Nc4[nH]nc(C(=O)O)c43)cc2c1` (stereo not drawn) [RU-0424541] are 646 and 12.9%. On to `CO[C@@]12CC[C@@H](O)C[C@@H]1N(Cc1cc3cc(C)cc(C)c3[nH]c1=O)CC2` [RU-0424542], for which the “RFU Score (10 μM)” value in assay [1] came out at 641. For the same molecule, the activation at 10 µM in assay [3] is 12.7%. The like results for `Cc1cc(C)c2[nH]c(=O)c(-c3nccn3C(C)Cn3nc(C)cc3C)cc2c1` (stereo not drawn) [RU-0424543] were, in that order, 363 and 2.86%.

For `c1ccc(-c2nc(-c3[nH]cnc3-c3ccccc3)cs2)cc1` [RU-0424544], in assay [1], the “RFU Score (10 μM)” value is 450. In assay [3], the activation at 10 µM was found to be 5.93%.

`COc1cccc(-c2[nH]cnc2-c2ccccc2)c1OCCCN(C)C` [RU-0424545]: the “RFU Score (10 μM)” value in assay [1] is 433. Moreover, in assay [3], the activation at 10 µM was 5.33%. For the molecule `Cc1cc(C)c2[nH]c(=O)c(CN3CCCn4cncc4C3)cc2c1` [RU-0424546], the “RFU Score (10 μM)” value in assay [1] was 460. For the same molecule, the activation at 10 µM in assay [3] is 6.3%. On the same counts, the results for `Cc1c(-c2[nH]cnc2-c2ccccc2)c2ccccc2n1CC(N)=O` [RU-0424547] are 518 and 8.34%. On the same counts, the results for `O=C(NC1CC(=O)N(Cc2ccc(F)cc2)C1)c1[nH]cnc1-c1ccccc1` (stereo not drawn) [RU-0424548] are 467 and 6.54%. As for `Cc1cc(C)c2[nH]c(=O)c(-c3ncc[nH]3)cc2c1` [RU-0424549], the “RFU Score (10 μM)” value in assay [1] came to 445. Further, the activation at 10 µM in assay [3] was determined as 5.75%. As for `Cc1cc(C)c2[nH]c(=O)c(CN3CCN(C)[C@@H]4CS(=O)(=O)C[C@@H]43)cc2c1` [RU-0424550], in assay [1], the “RFU Score (10 μM)” value is 304. The activation at 10 µM in assay [3] was 0.78%. The like results for `O=C(c1[nH]cnc1-c1ccccc1)N1CCCC(c2ccn[nH]2)C1` (stereo not drawn) [RU-0424551] were, in that order, 452 and 6%. On the same counts, the results for `O=C(NCCc1nnc2n1CCNCC2)c1[nH]cnc1-c1ccccc1` [RU-0424552] are 485 and 7.18%. On to `Cc1cc(C)c2[nH]c(=O)c(CN3CCC(NS(C)(=O)=O)CC3)cc2c1` [RU-0424553], for which the “RFU Score (10 μM)” value in assay [1] amounted to 454. Besides, the activation at 10 µM in assay [3] turned out to be 6.08%. On the same counts, the results for `CCN(C)Cc1cc2n(n1)CCN(C(=O)c1[nH]cnc1-c1ccccc1)C2` [RU-0424554] are 409 and 4.5%. The like results for `O=C(O)CCc1cc2n(n1)CCN(C(=O)c1[nH]cnc1-c1ccccc1)C2` [RU-0424555] were, in that order, 443 and 5.68%. Take `NS(=O)(=O)CC1CCN(C(=O)c2[nH]cnc2-c2ccccc2)C1` (stereo not drawn) [RU-0424556]: in assay [1], the “RFU Score (10 μM)” value is 435. In addition, the activation at 10 µM in assay [3] was found to be 5.4%. The like results for `COc1cc2c(cc1O)NC(=O)CC2c1cc2cc(C)cc(C)c2[nH]c1=O` (stereo not drawn) [RU-0424557] were, in that order, 430 and 5.24%. Regarding `COC(=O)[C@H]1C[C@@H](O)CCN1Cc1cc2cc(C)cc(C)c2[nH]c1=O` [RU-0424558], in assay [1], the “RFU Score (10 μM)” value amounted to 399. Besides, in assay [3], the activation at 10 µM turned out to be 4.15%. `C[C@@H]1CN(Cc2ccc(F)cc2)[C@@H](C)CN1C(=O)c1cc2c(C(=O)C(=O)N(C)C)cn(C)c2cc1Cl` [SCI0469, reference compound]: the “effect of inhibitor on DIPQUO-driven ALP expression (staining)” value in assay [2] (C2C12, co-treatment with DIPQUO) was “attenuated ALP expression in DIPQUO-treated cells”.

B1: RANKL: Receptor activator of nuclear factor kB ligand, positive control to stimulate osteoclast differentiation (protein, UniProt O14788 140-317, looked up)
Tumor necrosis factor ligand …: IRAEKAMVDGSWLDLAKRSKLEAQPFAHLTINATDIPSGSHKVSLSSWYHDRGWAKISNMTFSNGKLIVNQDGFYYLYANICFRHHETSGDLATEYLQLMVYVTKTSIKIPSSHTLMKGGSTKYWSGNSEFHFYSINVGGFFKLRSGEEISIEVSNPSLLDPDQDATYFGAFKVRDID
B1: in assay [4], the “TRAP staining of multinucleated osteoclasts” value is “found to promote both TRAP staining”.

(Values after patent US11478466B2, “Small molecule promoting osteoblast differentiation” (Cornell University, priority 2019, dated 2022).)
